# Columns and labels:
# Assay in all cases: biochemical
# Assay type in all cases: biochemical
# 382 unique human kinases [1] = biological target: T1, 382 unique human kinases (Homo sapiens, UniProt P35968); details: kinase KDR/VEGFR2, compound 10 uM; for remaining activity at 10 µM: read-out: % Enzyme Activity (relative to DMSO controls)
# T1 construct: purchased Reaction Biology (HotSpot contract assay)
# 382 unique human kinases [2] = biological target: T2, 382 unique human kinases (Homo sapiens, UniProt Q6P5Z2); details: kinase PKN3/PRK3, compound 10 uM; for remaining activity at 10 µM: read-out: % Enzyme Activity (relative to DMSO controls)
# T2 construct: purchased Reaction Biology (HotSpot contract assay)
# T2 sequence (Q6P5Z2 whole entry): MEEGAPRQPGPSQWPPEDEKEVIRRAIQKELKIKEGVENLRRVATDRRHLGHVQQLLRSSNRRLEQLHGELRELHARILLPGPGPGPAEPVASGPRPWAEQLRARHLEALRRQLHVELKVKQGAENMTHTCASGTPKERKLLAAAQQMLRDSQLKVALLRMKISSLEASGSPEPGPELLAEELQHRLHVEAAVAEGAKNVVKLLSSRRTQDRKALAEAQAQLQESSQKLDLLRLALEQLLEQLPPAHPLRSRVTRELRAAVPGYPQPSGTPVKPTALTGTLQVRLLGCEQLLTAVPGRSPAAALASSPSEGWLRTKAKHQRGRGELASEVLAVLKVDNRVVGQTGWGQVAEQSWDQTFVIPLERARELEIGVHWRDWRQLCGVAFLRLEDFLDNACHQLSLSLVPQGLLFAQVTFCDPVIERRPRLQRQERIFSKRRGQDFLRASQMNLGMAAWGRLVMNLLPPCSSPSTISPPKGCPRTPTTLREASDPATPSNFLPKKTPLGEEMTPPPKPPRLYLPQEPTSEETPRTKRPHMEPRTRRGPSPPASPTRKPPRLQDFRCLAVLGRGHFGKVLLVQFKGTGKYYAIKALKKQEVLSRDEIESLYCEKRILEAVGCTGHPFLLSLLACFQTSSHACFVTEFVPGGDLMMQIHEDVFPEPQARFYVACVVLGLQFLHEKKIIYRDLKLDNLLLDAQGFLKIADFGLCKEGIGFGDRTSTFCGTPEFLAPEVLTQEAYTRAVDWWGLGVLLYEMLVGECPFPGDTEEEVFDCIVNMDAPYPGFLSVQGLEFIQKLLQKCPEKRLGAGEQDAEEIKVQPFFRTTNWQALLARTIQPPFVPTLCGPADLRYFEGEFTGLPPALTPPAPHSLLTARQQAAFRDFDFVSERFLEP
# 382 unique human kinases [3] = biological target: T3, 382 unique human kinases (Homo sapiens, UniProt Q00536); details: CDK16/cyclin Y (PCTAIRE), 10 uM; for remaining activity at 10 µM: read-out: % Enzyme Activity (relative to DMSO controls)
# T3 construct: purchased Reaction Biology (HotSpot contract assay)
# T3 sequence (Q00536 whole entry): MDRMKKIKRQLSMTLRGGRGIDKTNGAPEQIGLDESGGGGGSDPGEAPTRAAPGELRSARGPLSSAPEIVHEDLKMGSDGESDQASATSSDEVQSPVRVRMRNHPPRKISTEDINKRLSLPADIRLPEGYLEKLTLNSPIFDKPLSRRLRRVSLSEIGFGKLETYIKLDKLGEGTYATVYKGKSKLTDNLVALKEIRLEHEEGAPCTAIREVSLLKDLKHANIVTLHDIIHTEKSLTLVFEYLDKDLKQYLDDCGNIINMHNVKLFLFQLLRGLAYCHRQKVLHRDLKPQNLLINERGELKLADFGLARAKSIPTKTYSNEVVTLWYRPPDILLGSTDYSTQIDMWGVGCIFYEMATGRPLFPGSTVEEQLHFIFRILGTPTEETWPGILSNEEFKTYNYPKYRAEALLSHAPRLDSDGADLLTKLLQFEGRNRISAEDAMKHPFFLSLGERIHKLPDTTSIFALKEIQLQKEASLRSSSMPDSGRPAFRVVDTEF
# 382 unique human kinases [4] = biological target: T4, 382 unique human kinases (Homo sapiens, UniProt P10721, D820Y); details: c-Kit (D820Y), 10 uM; for remaining activity at 10 µM: read-out: % Enzyme Activity (relative to DMSO controls)
# T4 construct: purchased Reaction Biology (HotSpot contract assay)
# T4 sequence (P10721 26-976 D820Y): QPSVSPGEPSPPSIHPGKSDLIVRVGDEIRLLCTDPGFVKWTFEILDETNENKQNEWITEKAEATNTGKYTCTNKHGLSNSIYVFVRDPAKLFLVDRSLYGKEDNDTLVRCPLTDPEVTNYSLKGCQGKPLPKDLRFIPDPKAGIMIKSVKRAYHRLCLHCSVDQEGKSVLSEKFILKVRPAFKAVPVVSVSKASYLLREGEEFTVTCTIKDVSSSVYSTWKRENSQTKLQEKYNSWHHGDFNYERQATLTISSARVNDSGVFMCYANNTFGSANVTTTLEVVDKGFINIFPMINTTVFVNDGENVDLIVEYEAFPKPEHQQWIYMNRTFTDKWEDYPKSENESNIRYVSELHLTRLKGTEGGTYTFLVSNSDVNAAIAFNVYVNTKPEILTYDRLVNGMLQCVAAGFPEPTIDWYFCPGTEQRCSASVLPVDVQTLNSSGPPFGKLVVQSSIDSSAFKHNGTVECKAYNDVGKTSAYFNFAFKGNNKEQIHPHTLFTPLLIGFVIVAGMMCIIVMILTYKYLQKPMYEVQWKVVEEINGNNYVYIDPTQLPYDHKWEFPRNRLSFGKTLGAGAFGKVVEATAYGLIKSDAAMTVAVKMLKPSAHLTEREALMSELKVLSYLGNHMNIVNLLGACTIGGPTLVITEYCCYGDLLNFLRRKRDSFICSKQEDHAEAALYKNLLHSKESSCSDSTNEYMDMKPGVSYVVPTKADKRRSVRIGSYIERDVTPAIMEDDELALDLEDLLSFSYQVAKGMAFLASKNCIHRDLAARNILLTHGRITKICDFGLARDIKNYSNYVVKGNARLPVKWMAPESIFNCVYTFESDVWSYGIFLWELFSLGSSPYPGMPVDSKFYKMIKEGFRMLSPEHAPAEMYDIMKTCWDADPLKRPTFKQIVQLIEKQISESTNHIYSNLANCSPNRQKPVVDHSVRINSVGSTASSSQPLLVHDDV
# 382 unique human kinases [5] = biological target: T5, 382 unique human kinases (Homo sapiens, UniProt Q99683); details: ASK1/MAP3K5, compound at 10 uM, duplicate values; for remaining activity at 10 µM: read-out: % Enzyme Activity (relative to DMSO controls)
# T5 construct: purchased Reaction Biology (HotSpot contract assay)
# T5 sequence (Q99683 1-1374): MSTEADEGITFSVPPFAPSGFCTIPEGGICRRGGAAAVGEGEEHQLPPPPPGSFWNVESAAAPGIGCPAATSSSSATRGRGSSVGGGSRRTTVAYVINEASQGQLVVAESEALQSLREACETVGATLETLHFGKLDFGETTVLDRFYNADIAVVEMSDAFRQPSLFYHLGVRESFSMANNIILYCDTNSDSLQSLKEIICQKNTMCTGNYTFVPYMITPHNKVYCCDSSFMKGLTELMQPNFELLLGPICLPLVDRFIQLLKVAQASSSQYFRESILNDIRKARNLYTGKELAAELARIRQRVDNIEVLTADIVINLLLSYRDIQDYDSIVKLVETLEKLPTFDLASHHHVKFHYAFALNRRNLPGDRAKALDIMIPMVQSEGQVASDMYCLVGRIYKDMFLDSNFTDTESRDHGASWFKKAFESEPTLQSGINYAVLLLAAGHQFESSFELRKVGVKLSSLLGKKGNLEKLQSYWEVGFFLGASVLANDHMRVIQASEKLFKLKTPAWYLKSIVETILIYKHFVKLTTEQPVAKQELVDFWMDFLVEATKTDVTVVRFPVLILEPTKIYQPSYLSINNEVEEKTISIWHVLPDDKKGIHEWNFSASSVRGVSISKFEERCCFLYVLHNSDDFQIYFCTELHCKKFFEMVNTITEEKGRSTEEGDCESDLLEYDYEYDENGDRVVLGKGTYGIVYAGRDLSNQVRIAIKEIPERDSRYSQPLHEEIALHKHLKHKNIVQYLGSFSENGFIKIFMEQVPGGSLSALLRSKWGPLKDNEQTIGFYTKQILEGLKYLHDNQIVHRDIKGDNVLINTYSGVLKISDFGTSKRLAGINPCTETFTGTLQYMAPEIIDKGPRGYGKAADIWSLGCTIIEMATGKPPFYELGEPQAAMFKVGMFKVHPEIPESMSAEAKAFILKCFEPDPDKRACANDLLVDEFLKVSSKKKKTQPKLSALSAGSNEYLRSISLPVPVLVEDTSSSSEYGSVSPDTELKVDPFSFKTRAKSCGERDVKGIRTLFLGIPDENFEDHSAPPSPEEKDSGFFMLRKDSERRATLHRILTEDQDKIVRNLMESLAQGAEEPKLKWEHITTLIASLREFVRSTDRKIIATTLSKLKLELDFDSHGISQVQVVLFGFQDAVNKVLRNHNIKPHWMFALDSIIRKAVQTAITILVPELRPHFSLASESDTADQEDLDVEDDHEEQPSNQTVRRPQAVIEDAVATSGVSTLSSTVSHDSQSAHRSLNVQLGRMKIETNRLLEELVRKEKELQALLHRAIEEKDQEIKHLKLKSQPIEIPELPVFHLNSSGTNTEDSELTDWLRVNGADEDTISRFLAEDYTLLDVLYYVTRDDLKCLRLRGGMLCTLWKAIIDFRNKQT
# 382 unique human kinases [6] = biological target: T6, 382 unique human kinases (Homo sapiens, UniProt O43353); details: RIPK2, 10 uM; for remaining activity at 10 µM: read-out: % Enzyme Activity (relative to DMSO controls)
# T6 construct: purchased Reaction Biology (HotSpot contract assay)
# T6 sequence (O43353 whole entry): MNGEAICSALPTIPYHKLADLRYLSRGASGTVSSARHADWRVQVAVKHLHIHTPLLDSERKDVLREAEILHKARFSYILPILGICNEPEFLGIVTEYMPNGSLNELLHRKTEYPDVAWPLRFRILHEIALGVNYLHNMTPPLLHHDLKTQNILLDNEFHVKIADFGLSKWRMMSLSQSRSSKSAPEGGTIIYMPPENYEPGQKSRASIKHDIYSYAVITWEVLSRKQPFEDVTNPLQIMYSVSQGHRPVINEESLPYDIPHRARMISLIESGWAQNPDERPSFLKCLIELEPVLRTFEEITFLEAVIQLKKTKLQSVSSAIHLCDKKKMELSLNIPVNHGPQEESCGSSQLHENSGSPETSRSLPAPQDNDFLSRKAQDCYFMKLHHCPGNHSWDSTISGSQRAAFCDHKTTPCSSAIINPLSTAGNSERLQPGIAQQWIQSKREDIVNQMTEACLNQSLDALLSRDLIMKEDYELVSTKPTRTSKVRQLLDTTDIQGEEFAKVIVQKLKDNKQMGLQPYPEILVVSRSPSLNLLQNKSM
# 382 unique human kinases [7] = biological target: T7, 382 unique human kinases (Homo sapiens, UniProt P54760); details: EPHB4, [ATP] 20 µM, compound 10 uM; for remaining activity at 10 µM: read-out: % Enzyme Activity (relative to DMSO controls)
# T7 construct: purchased Reaction Biology (HotSpot contract assay)
# T7 sequence (P54760 16-987): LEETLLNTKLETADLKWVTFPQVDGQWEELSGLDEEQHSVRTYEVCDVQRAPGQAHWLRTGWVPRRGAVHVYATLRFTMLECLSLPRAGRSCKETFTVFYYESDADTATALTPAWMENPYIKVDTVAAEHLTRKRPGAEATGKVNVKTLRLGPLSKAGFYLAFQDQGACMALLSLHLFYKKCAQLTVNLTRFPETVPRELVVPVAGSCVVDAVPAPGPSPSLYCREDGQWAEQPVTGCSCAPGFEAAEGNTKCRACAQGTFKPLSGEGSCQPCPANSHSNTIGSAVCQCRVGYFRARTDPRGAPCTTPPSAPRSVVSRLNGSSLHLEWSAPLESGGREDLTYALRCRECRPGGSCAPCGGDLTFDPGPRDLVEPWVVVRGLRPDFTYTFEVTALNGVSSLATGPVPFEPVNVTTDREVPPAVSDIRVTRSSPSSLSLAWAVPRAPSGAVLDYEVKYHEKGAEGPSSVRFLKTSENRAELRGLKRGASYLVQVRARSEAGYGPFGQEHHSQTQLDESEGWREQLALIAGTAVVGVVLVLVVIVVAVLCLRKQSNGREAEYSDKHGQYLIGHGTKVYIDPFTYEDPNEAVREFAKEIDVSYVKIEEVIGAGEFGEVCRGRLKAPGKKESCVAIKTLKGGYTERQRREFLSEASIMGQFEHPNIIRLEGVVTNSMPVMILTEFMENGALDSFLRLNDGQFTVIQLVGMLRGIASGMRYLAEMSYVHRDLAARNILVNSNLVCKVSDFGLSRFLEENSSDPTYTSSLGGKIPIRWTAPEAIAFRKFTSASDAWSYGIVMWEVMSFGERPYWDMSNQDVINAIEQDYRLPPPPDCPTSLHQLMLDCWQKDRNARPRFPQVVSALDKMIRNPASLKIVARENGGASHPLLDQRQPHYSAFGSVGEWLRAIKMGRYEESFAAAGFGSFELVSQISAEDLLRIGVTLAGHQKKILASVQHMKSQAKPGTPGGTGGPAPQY
# 382 unique human kinases [8] = biological target: T8, 382 unique human kinases (Homo sapiens, UniProt P78368); details: CK1g2, 10 uM; for remaining activity at 10 µM: read-out: % Enzyme Activity (relative to DMSO controls)
# T8 construct: purchased Reaction Biology (HotSpot contract assay)
# T8 sequence (P78368 whole entry): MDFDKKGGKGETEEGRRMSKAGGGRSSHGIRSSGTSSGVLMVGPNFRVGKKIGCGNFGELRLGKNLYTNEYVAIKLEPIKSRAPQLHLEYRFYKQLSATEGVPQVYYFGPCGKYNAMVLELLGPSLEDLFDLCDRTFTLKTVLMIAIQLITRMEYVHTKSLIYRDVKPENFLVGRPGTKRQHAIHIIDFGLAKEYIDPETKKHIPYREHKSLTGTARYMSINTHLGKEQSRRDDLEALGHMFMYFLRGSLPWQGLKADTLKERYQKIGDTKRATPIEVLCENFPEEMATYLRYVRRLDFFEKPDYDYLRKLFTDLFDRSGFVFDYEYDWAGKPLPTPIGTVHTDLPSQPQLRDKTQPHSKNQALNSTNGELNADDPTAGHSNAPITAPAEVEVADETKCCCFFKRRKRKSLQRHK
# T1 sequence (P35968 20-1356): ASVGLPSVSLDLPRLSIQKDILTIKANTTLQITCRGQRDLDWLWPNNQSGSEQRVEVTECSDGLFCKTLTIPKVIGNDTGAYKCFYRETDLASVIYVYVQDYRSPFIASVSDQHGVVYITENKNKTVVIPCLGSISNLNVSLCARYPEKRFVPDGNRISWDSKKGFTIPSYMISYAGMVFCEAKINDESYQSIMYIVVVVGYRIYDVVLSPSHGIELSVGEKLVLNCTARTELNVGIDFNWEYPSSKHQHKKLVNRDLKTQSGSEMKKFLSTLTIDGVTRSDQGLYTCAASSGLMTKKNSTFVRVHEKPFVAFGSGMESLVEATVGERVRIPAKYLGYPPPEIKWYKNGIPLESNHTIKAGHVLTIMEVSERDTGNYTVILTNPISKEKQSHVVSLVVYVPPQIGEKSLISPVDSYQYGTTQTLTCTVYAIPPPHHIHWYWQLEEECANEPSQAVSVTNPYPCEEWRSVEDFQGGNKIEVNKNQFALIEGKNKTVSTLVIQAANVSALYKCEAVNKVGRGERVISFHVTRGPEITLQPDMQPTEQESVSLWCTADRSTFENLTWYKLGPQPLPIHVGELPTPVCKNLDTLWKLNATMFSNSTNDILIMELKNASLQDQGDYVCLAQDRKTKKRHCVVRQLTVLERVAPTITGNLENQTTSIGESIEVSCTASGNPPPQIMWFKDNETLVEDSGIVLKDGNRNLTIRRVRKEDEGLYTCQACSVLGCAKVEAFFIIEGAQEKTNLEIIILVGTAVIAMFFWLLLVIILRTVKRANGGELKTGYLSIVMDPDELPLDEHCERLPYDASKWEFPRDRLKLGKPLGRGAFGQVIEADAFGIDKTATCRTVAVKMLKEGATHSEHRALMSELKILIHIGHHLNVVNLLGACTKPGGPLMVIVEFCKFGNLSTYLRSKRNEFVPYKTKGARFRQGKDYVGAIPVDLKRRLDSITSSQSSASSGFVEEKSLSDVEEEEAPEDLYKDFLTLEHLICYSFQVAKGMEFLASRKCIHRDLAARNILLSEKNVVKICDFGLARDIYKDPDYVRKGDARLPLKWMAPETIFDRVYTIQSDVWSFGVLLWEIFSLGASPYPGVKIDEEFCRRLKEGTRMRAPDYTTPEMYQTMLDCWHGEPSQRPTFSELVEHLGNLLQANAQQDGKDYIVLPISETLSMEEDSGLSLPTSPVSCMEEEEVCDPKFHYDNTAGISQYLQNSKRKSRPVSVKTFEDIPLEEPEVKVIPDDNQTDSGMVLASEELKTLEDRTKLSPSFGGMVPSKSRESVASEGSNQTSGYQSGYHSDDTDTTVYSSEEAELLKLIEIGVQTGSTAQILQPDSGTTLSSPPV
Structure (SMILES),remaining activity at 10 µM (382 unique human kinases [1]) [%],remaining activity at 10 µM (382 unique human kinases [2]) [%],remaining activity at 10 µM (382 unique human kinases [3]) [%],remaining activity at 10 µM (382 unique human kinases [4]) [%],remaining activity at 10 µM (382 unique human kinases [5]) [%],remaining activity at 10 µM (382 unique human kinases [6]) [%],% Enzyme Activity (relative to DMSO controls) (382 unique human kinases [7]) [%],remaining activity at 10 µM (382 unique human kinases [7]) [%],% Enzyme Activity (relative to DMSO controls) (382 unique human kinases [8]) [%],remaining activity at 10 µM (382 unique human kinases [8]) [%],% Enzyme Activity (relative to DMSO controls) (382 unique human kinases [1]) [%],% Enzyme Activity (relative to DMSO controls) (382 unique human kinases [2]) [%],% Enzyme Activity (relative to DMSO controls) (382 unique human kinases [3]) [%],% Enzyme Activity (relative to DMSO controls) (382 unique human kinases [4]) [%],% Enzyme Activity (relative to DMSO controls) (382 unique human kinases [5]) [%],% Enzyme Activity (relative to DMSO controls) (382 unique human kinases [6]) [%]
CC(C)c1cc(-c2n[nH]c(=O)n2-c2ccc3c(ccn3C)c2)c(O)cc1O [Ganetespib (STA9090)],88.7,83.9,78,62.7,110,71.3,–,–,–,–,–,–,–,–,–,–
CCNC(=O)c1noc(-c2cc(C(C)C)c(O)cc2O)c1-c1ccc(CN2CCOCC2)cc1 [Luminespib],–,–,–,–,–,–,81.04,82.2,97.43,99.4,–,–,–,–,–,–
CCNC(=O)c1noc(-c2cc(C(C)C)c(O)cc2O)c1-c1ccc(CN2CCOCC2)cc1 [Luminespib (AUY-922)],101,104,100,71.4,106,112,–,–,–,–,99.89,102.60,100.35,70.30,105.53,109.60
CC(C)c1cc(-c2n[nH]c(=O)n2-c2ccc3c(ccn3C)c2)c(O)cc1O [Ganetespib],–,–,–,–,–,–,–,33.1,–,110,–,–,–,–,–,–
